Consider 39 compounds from ChEMBL document CHEMBL4483862, “Open-source discovery of chemical leads for next-generation chemoprotective antimalarials” (2018).

pIC50: −log10 of the molar value.

This assay relates to Plasmodium berghei. The assay can be described thus: Luciferase/luciferin-expressing antifolate-resistant parasites were used to infect a culture of HepG2 cells that were pre-incubated with compounds. Infected hepatocytes emit light due to the luciferase reaction. Assay results are presented as the percent inhibition of light emission compared to control. […]. The assay is classed as functional. As to conditions: sporozoite; for IC90: read-out: LUCIFERASE INFECTION ASSAY - IC90.

Setting [1] is: read-out: LUCIFERASE INFECTION ASSAY - IC50.

Broadly, the pIC50 is the negative decadic logarithm of the IC50, by convention in mol/L. One may read the IC90 as the point of the concentration-response curve where the effect stands at 90%. `O=[N+]([O-])c1cnc(Sc2nc3cc(Cl)ccc3s2)s1`: the 90% effect concentration (IC90) is more than 10 µM. Under “FFLUC_HILL_SLOPE 97.7, FFLUC_R_SQUARED 0.0466, read-out: LUCIFERASE INFECTION ASSAY - IC50”, the pIC50 was less than 5.00.
For `O=c1c2sccc2ncn1Cc1cc(-c2cccs2)on1`, the IC90 was more than 10 µM. Further, the pIC50 under setting [1] was less than 5.00.
Take `O=C1c2cccc3c([N+](=O)[O-])ccc(c23)C(=O)N1Cc1cccnc1`: the IC90 is more than 9.9 µM. In addition, under setting [1], the negative-log IC50 (pIC50) was less than 5.00.
Consider `CC(C)c1cccc(NC(=O)COc2ccc(S(N)(=O)=O)cc2[N+](=O)[O-])c1`, for which the concentration for an effect of 90% (IC90) was more than 10 µM. Moreover, under setting [1], the pIC50 was less than 5.00.
As for `COc1ccc(-c2csc3ncnc(NCC(=O)NC(C)C)c23)cc1`, the IC90 was more than 10 µM. For the same compound, under “HEPG2TOX_HILL_SLOPE 2.82, HEPG2TOX_R_SQUARED 0.984, PBLUC_HILL_SLOPE 1.1, PBLUC_R_SQUARED 0.732, read-out: LUCIFERASE INFECTION ASSAY - IC50”, the negative logarithm of the IC50 (pIC50) was 5.59.
With `O=C(NC1CCSc2ccccc21)c1cnn(Cc2ccccc2Cl)c1` (stereo not drawn), the IC90 is more than 10 µM. Further, the pIC50 (HEPG2TOX_HILL_SLOPE 8.01, HEPG2TOX_R_SQUARED 0.477, PBLUC_HILL_SLOPE 11.5, PBLUC_R_SQUARED 0.343, read-out: LUCIFERASE INFECTION ASSAY - IC50) is 5.03.
With `CC(=O)c1cccc(-c2cnc3cnc(-c4ccccc4Cl)cn23)c1`, the IC90 is more than 9.49 µM. For the same compound, for the setting “PBLUC_HILL_SLOPE 3.8, PBLUC_R_SQUARED 0.614, read-out: LUCIFERASE INFECTION ASSAY - IC50”, the pIC50 is 5.17.
Take `O=C(Nc1ccc(-c2nc3ccccc3[nH]2)cc1)c1ccc2c(=O)n3c(nc2c1)CCCCCC3`: the IC90 came to 4.15 µM. For the same compound, the pIC50 (HEPG2TOX_HILL_SLOPE 11.2, HEPG2TOX_R_SQUARED 0.937, PBLUC_HILL_SLOPE 12.6, PBLUC_R_SQUARED 0.815, read-out: LUCIFERASE INFECTION ASSAY - IC50) is 5.46.
As for `O=S1(=O)CC(S(=O)(=O)c2cccs2)c2ccccc21` (stereo not drawn), the IC90 was more than 10.5 µM. In addition, the pIC50 under setting [1] was less than 4.98.
For `CCOc1cccc(-c2cn3c(-c4ccc(C#N)cc4)cnc3cn2)c1`, the IC90 was more than 9.69 µM. Moreover, the pIC50 (PBLUC_HILL_SLOPE 4.27, PBLUC_R_SQUARED 0.47, read-out: LUCIFERASE INFECTION ASSAY - IC50) is 5.21.
On to `CNC(=O)c1ccc(CN(Cc2csc(-c3ccsc3)n2)Cc2ccco2)cc1`, for which the IC90 is 3.26 µM. For the same compound, the negative logarithm of the IC50 (pIC50) (PBLUC_HILL_SLOPE 16.0, 14.5, PBLUC_R_SQUARED 0.463, 0.641, read-out: LUCIFERASE INFECTION ASSAY - IC50) was 5.55.
Regarding `COc1ccc(C2CC(=O)c3c(n[nH]c3C)C2)cc1` (stereo not drawn), the IC90 was more than 12.9 µM. Where the note is “PBLUC_HILL_SLOPE 1.11, PBLUC_R_SQUARED 0.36, read-out: LUCIFERASE INFECTION ASSAY - IC50”, the negative logarithm of the IC50 (pIC50) was 5.35.
Take `Cc1nc(-c2cccs2)sc1NC(=O)Nc1ccc(Cl)cc1`: the IC90 is more than 9.43 µM. For the same compound, under setting [1], the pIC50 is less than 5.03.
Consider `COc1ccc(-c2ccnc3n[nH]c(-c4ccncc4)c23)cc1`, for which the concentration for an effect of 90% (IC90) was more than 10 µM. For the same compound, where the note is “HEPG2TOX_HILL_SLOPE 3.34, HEPG2TOX_R_SQUARED 0.878, PBLUC_HILL_SLOPE 1.93, PBLUC_R_SQUARED 0.439, read-out: LUCIFERASE INFECTION ASSAY - IC50”, the pIC50 is 5.49.
In the case of `O=C1/C(=C/c2ccc(-n3cncn3)c(F)c2)CSc2ccccc21`, the IC90 was more than 10 µM. Moreover, the negative logarithm of the IC50 (pIC50) under setting [1] was less than 5.00.
In the case of `c1cc(-c2cn3c(-c4ccc5c(c4)OCO5)cnc3cn2)cs1`, the IC90 is more than 10.3 µM. For the same compound, the pIC50 (PBLUC_HILL_SLOPE 1.82, PBLUC_R_SQUARED 0.105, read-out: LUCIFERASE INFECTION ASSAY - IC50) was less than 4.99.
In the case of `Cn1c(Cl)cnc1CN1CCN(CC(=O)Nc2ccccc2Cl)CC1`, the IC90 was more than 10 µM. Besides, under setting [1], the pIC50 is less than 5.00.
As to `O=C(Nc1ccc(-n2cnc3ccccc32)nc1)c1ccc(S(=O)(=O)C(F)F)cc1`, the IC90 was more than 10 µM. For the same compound, the pIC50 (FFLUC_HILL_SLOPE 3, FFLUC_R_SQUARED 0.28, HEPG2TOX_HILL_SLOPE 9.7, HEPG2TOX_R_SQUARED 0.823, PBLUC_HILL_SLOPE 15.6, 20.0, PBLUC_R_SQUARED 0.113, 0.608, read-out: LUCIFERASE INFECTION ASSAY - IC50) was 5.04.
With `Cc1ccc(-c2nn(-c3ccccc3)cc2/C=C/C(=O)NCc2ccc(-n3ccnc3)nc2)cc1`, the IC90 was more than 10 µM. The pIC50 (PBLUC_HILL_SLOPE 2.1, PBLUC_R_SQUARED 0.668, read-out: LUCIFERASE INFECTION ASSAY - IC50) was 5.29.
For `CC1(C(=O)NCc2ccco2)Cc2c(-c3ccccc3)ccnc2O1` (stereo not drawn), the 90% effect concentration (IC90) was 3.99 µM. In addition, the pIC50 (HEPG2TOX_HILL_SLOPE 4.72, HEPG2TOX_R_SQUARED 0.753, PBLUC_HILL_SLOPE 10.4, PBLUC_R_SQUARED 0.157, read-out: LUCIFERASE INFECTION ASSAY - IC50) is 5.49.
With `Cc1cc(C(=O)NCCSc2ccccc2)c(C)n1C(C)C`, the IC90 turned out to be 6.44 µM. In addition, the pIC50 (PBLUC_HILL_SLOPE 0.93, PBLUC_R_SQUARED 0.762, read-out: LUCIFERASE INFECTION ASSAY - IC50) is 6.22.
For `CCOC(=O)c1sc(NC(=O)c2cccc(S(=O)(=O)N(C)c3ccc(OC)cc3)c2)cc1C`, the IC90 was determined as 9.74 µM. Besides, the pIC50 (FFLUC_HILL_SLOPE 3.21, FFLUC_R_SQUARED 0.745, HEPG2TOX_HILL_SLOPE 15.7, HEPG2TOX_R_SQUARED 0.428, PBLUC_HILL_SLOPE 5.31, PBLUC_R_SQUARED 0.793, read-out: LUCIFERASE INFECTION ASSAY - IC50) was 5.19.
Turning to `CN(C)c1ccc(C2CNC(c3ccc(Cl)c([N+](=O)[O-])c3)c3[nH]c4ccccc4c32)cc1` (stereo not drawn), the IC90 was more than 10 µM. Moreover, for the setting “PBLUC_HILL_SLOPE 1.52, PBLUC_R_SQUARED 0.0896, read-out: LUCIFERASE INFECTION ASSAY - IC50”, the pIC50 is less than 5.00.
Take `CCCc1cc(NCc2ccccn2)n2nc(C)c(-c3ccccc3)c2n1`: the concentration for an effect of 90% (IC90) was determined as 4.47 µM. In addition, the negative logarithm of the IC50 (pIC50) (PBLUC_HILL_SLOPE 8.47, PBLUC_R_SQUARED 0.549, read-out: LUCIFERASE INFECTION ASSAY - IC50) was 5.46.
On to `Cc1ccc(-c2nnc(SCC(=O)Nc3ccc(S(=O)(=O)N4CCCC4)cc3)[nH]2)cc1`, for which the IC90 was more than 10 µM. In addition, the pIC50 under setting [1] is less than 5.00.
Take `CCN(CC)S(=O)(=O)c1cccc(C(=O)N/N=C(\C)c2cc(Cl)ccc2Cl)c1`: the IC90 was more than 10 µM. In addition, under “PBLUC_HILL_SLOPE 2.08, PBLUC_R_SQUARED 0.0166, read-out: LUCIFERASE INFECTION ASSAY - IC50”, the pIC50 was 5.11.
As for `NS(=O)(=O)c1ccc(CNc2ccc3ncc(-c4ccc(Cl)cc4)n3n2)cc1`, the IC90 stood at 1.19 µM. Moreover, under “HEPG2TOX_HILL_SLOPE 1.64, HEPG2TOX_R_SQUARED 0.894, PBLUC_HILL_SLOPE 9.33, PBLUC_R_SQUARED 0.776, read-out: LUCIFERASE INFECTION ASSAY - IC50”, the negative-log IC50 (pIC50) was 6.03.
For `CCCOc1ccc(C=C(c2nc3ccccc3s2)c2nc3ccccc3s2)c(O)c1`, the IC90 was more than 10 µM. Moreover, the pIC50 (FFLUC_HILL_SLOPE 30.4, FFLUC_R_SQUARED 0.313, read-out: LUCIFERASE INFECTION ASSAY - IC50) is less than 5.00.
Regarding `CCCCc1ccc(NC2=C(Cl)C(=O)c3ccccc3C2=O)cc1`, the IC90 amounted to 3.62 µM. For the same compound, the pIC50 (FFLUC_HILL_SLOPE 9.03, FFLUC_R_SQUARED 0.305, HEPG2TOX_HILL_SLOPE 8.62, HEPG2TOX_R_SQUARED 0.549, PBLUC_HILL_SLOPE 14.3, PBLUC_R_SQUARED 0.552, read-out: LUCIFERASE INFECTION ASSAY - IC50) was 5.51.
For the compound `O=S(=O)(NCCNc1ncnc2ccccc12)c1cccc(Cl)c1`, the concentration for an effect of 90% (IC90) was more than 10 µM. Besides, where the note is “HEPG2TOX_HILL_SLOPE 0.939, HEPG2TOX_R_SQUARED 0.791, read-out: LUCIFERASE INFECTION ASSAY - IC50”, the pIC50 was less than 5.00.
With `C=CCN1C(=O)C(O)(c2cnc(N)s2)c2ccccc21` (stereo not drawn), the IC90 was more than 10 µM. Also, under setting [1], the negative-log IC50 (pIC50) was less than 5.00.
With `OC(COc1ccc(Cl)cc1)CN1CCC(Cc2ccccc2)CC1` (stereo not drawn), the IC90 worked out at 8.19 µM. The pIC50 (PBLUC_HILL_SLOPE 16.8, 4.66, PBLUC_R_SQUARED 0.391, 0.0786, read-out: LUCIFERASE INFECTION ASSAY - IC50) was 5.20.
On to `CN(Cc1ccc(C(=O)NC2CC2)cc1)S(=O)(=O)c1ccc(Br)s1`, for which the IC90 came to 9.55 µM. Besides, where the note is “PBLUC_HILL_SLOPE 16.6, PBLUC_R_SQUARED 0.228, read-out: LUCIFERASE INFECTION ASSAY - IC50”, the pIC50 is 5.08.
`Fc1ccc(-c2nc3ccccc3n2-c2cc(-c3ccccc3)n[nH]2)cc1`: the concentration for an effect of 90% (IC90) came out at 5.27 µM. For the same compound, under “PBLUC_HILL_SLOPE 1.15, 2.25, PBLUC_R_SQUARED 0.601, 0.956, read-out: LUCIFERASE INFECTION ASSAY - IC50”, the pIC50 is 5.80.
In the case of `Clc1ccc2[nH]c(-c3cccs3)c(-c3ccccc3)c2c1`, the IC90 is more than 10.7 µM. Under setting [1], the negative-log IC50 (pIC50) is 5.30.
For the compound `COc1cc(-c2cc(-c3cc(OC)c(OC)c(OC)c3)cnc2N)ccc1O`, the IC90 was 6.84 µM. Where the note is “PBLUC_HILL_SLOPE 4.32, PBLUC_R_SQUARED 0.78, read-out: LUCIFERASE INFECTION ASSAY - IC50”, the pIC50 was 5.39.
With `CC(NC(=O)COC(=O)COc1ccc2c(c1)CCC(=O)N2)c1ccco1` (stereo not drawn), the IC90 was more than 10 µM. Also, the pIC50 under setting [1] was less than 5.00.
For `Cc1ccc(S(=O)(=O)c2c(C)nn(C(C)(C)C)c2OC(=O)c2cccs2)cc1`, in that order: more than 10 µM and less than 5.00.
For `O=C(COC(=O)c1cc(-c2ccc(Cl)cc2)nc2ccccc12)Nc1cc(C(F)(F)F)ccc1-n1cncn1`, in that order: more than 10 µM and less than 5.00.
